Assay results from ChEMBL document CHEMBL2203002, “Fluorescent nitrile-based inhibitors of cysteine cathepsins” (Bioorg Med Chem Lett, 2012).

Legend:
Cathepsin K [1] = target: T1, Cathepsin K (Homo sapiens, UniProt P43235); assay: Inhibition of human recombinant cathepsin K using Z-Leu-Arg-AMC as substrate after 10 mins by fluorimetric analysis
T1 sequence (P43235 whole entry): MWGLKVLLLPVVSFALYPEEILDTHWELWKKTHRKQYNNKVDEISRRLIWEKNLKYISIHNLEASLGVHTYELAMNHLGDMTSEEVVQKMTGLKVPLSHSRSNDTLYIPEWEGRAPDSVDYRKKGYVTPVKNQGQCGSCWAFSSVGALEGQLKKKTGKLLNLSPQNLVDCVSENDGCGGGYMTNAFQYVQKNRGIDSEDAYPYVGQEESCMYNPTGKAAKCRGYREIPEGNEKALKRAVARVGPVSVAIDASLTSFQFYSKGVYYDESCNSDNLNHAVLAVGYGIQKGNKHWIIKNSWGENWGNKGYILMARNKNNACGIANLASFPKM

Cathepsin S [2] = target: T2, Cathepsin S (Homo sapiens, UniProt P25774); assay: Inhibition of human recombinant cathepsin S using Z-Phe-Arg-pNA as substrate after 10 mins by […] analysis
Target sequence in this assay (P25774 whole entry): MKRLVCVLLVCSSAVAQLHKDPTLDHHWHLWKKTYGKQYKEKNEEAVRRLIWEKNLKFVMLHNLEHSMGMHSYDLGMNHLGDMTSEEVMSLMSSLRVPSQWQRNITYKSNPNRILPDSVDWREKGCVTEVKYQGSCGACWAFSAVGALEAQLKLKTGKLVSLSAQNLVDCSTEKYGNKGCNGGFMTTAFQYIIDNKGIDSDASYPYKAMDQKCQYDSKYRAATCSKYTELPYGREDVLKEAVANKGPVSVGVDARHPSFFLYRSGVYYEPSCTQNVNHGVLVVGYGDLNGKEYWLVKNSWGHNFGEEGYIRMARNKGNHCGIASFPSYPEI

Cathepsin B [3] = target: T3, Cathepsin B (Homo sapiens, UniProt P07858); assay: Inhibition of human recombinant cathepsin B using Z-Arg-Arg-pNA as substrate after 10 mins by […] analysis
[4] = Inhibition of human cathepsin L using Z-Phe-Arg-pNA as substrate after 10 mins by […] analysis
Cathepsin S [5] = target: T2, Cathepsin S; assay: Inhibition of human recombinant cathepsin S using Z-Phe-Arg-pNA as substrate after 80 mins by […] analysis
Target sequence in this assay (P25774 whole entry): as above

Cathepsin K [6] = target: T1, Cathepsin K; assay: Inhibition of human recombinant cathepsin K using Z-Leu-Arg-AMC as substrate after 80 mins by fluorimetric analysis
[7] = Inhibition of human cathepsin L using Z-Phe-Arg-pNA as substrate incubated for 30 mins prior to substrate addition measured after 10 mins by […] analysis
Cathepsin B [8] = target: T3, Cathepsin B; assay: Inhibition of human recombinant cathepsin B using Z-Arg-Arg-pNA as substrate after 80 mins by […] analysis
Cathepsin B [9] = target: T3, Cathepsin B
Description: Binding affinity to human recombinant cathepsin B assessed as compound-enzyme half life

Cathepsin S [10] = target: T2, Cathepsin S
Target sequence in this assay (P25774 115-331 limits assumed): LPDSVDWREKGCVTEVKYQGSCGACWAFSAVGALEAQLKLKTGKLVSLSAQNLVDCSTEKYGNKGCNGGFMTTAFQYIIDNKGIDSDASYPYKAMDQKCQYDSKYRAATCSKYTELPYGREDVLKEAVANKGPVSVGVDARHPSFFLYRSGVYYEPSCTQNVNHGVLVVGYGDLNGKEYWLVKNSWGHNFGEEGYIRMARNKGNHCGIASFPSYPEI
Description: Binding affinity to human recombinant cathepsin S assessed as compound-enzyme half life

[11] = target: T4, Cathepsin K (Homo sapiens) (UniProt P43235)
T4 sequence (whole entry): T1 sequence (P43235 whole entry)
Description: Binding affinity to human recombinant cathepsin K assessed as compound-enzyme half life

SMILES | Ki (Cathepsin K [1]) [nM] | Ki (Cathepsin S [2]) [nM] | Ki (Cathepsin B [3]) [nM] | Ki [4] [nM] | Ki (Cathepsin S [5]) [nM] | Ki (Cathepsin K [6]) [nM] | Ki [7] [nM] | Ki (Cathepsin B [8]) [nM] | T1/2 (Cathepsin B [9]) [min] | T1/2 (Cathepsin S [10]) [min] | T1/2 [11] [min]
CN(C)c1cccc2c(S(=O)(=O)NC3(C(=O)NCC#N)CCCCC3)cccc12 | 880 | 6600 | > 40000 | > 40000 | – | – | – | – | – | – | –
CCN(CC)c1ccc2cc(C(=O)NC3(C(=O)NCC#N)CCCCC3)c(=O)oc2c1 | 230 | 8400 | > 40000 | 18000 | – | – | – | – | – | – | –
CCN(CC)c1ccc2cc(C(=O)NC3(C(=O)N(C)N(C)C#N)CCCCC3)c(=O)oc2c1 | – | – | – | – | 750 | 19 | 760 | 140 | 30 | 30 | 30
